Assay results reported in patent US20260227379A1, “DEVICES AND METHODS FOR CLOT BURST PRESSURE MEASUREMENT” (THE BOARD OF REGENTS OF THE UNIVERSITY OF TEXAS SYSTEM, priority 2023, published 2026).

Key:
[1] = test system: whole blood (WB) clot; test: Clot burst pressure (CBP) assay on conditioned whole blood; type: cell-based; conditions: for CBP normalized to individual donor baseline (times as strong): recalcified 6 mM CaCl2, 37 C 30 min
Method: An exemplary embodiment of the present disclosure was used to obtain test data as follows. Blood from donors (n=7) was collected into 3.2% sodium citrate tubes. Blood was divided and treated to achieve the following conditions for a hypocoagulable state: 0.10, 0.15, and 0.20 USP heparin/mL blood; for a hypercoagulable state, blood was treated with a 1.0 or 2.0 g/L addition of fibrinogen. 2 mm holes were drilled into 6-well polystyrene plates and packing tape was used to cover the bottom. Blood was recalcified with CaCl2 and pipetted into the holes. The plates were incubated at 37 C for 30 minutes to allow for thrombus formation. Tape was removed after incubation. A pressure cap was designed with an inlet for fluid from a syringe pump and an outlet for outflow and was secured in the wells with a watertight seal. Outflow led to a vertical graduated measurement column where pressure was converted from cmH2O to mmHg for data analysis.
The device comprises four primary components as shown in FIG. 1: a syringe pump, a pressure cap, a 6-well plate assembly, and a water column. A Programmable Syringe Pump was programmed to pump a 100 cc syringe at 1 mL/s at a continuous rate. The syringe pump is coupled to a pressure cap assembly.
The pressure cap assembly shown in FIGS. 2 and 3 directs fluid flow directly over a clot and prevents pressure loss to the environment. The cap has two female ports allowing for an inlet connection from the syringe pump and an outlet connecting to the water column. The cap has three legs to avoid direct contact with a clot. An O-Ring (Dash 242) fits in the groove found around the pressure cap ensuring a snug fit in a standard 6-well plate. As fluid enters the pressure cap, it is directed into a compartment where a formed clot is suspended. Backflow fluid rises up a 150 cm water column created from clear PVC pipe marked at 5 cm intervals. All connections used Luer locks and barbed connections to prevent fluid loss.
A 20″×20″ HDPE board was used as the base of the device, which contained the 6-well plate assembly and water column. 4, 2″ screws were used to elevate the 6-well plate assembly to allow for easy visual inspection after trial runs. A single 5/64″ hole was drilled into the centers of each well in a 6-well plate. 220-grit sandpaper was used in a circular manner on the inner surface of the well-plate to provide a sheared surface for platelet adhesion. Clear packing tape was used to cover the holes on the bottom of the plate prior to the start of the assay.
Venipuncture whole blood (WB) was collected from donors (male and female) who were at least 18 years of age and had not taken anticoagulant medication in the past 14 days. Blood was drawn from the antecubital fossa using a 19G needle into a standard blue top 3.2% sodium citrate vacutainer tube. Tubes were placed on a rocker at room temperature prior to use in the assay, but all assay runs were initiated within 30 minutes of blood draw.
WB was conditioned to mimic hyper and hypocoagulable states. RiaSTAP a lyophilized fibrinogen concentrate, was used to generate a hypercoagulable condition. WB was conditioned with a 1.0 mg/mL or 2.0 mg/mL bolus of fibrinogen. Heparin sodium salt (Sigma-Aldrich, OH) was reconstituted and added to WB at 0.10, 0.15, 0.20 USP/mL amounts to generate a hypocoagulable state. 6 mM of CaCl2) was added to each conditioned blood group and a control group to recalcify and promote coagulation.
35 μL of conditioned or control WB was placed in the 5/64″ hole above the packing tape in each well of the 6-well plates. The entire plate was incubated at 37 C for 30 min with the plate lid on. After 30 min, the plate was removed from the incubator and the packing tape on the bottom was removed. The pressure cap was placed in a single well in a spiral manner and an air-tight seal was created with the O-Ring. One port of the pressure cap was connected to the syringe pump and the other port to the vertical water column. […]

[2] = test system: whole blood (WB) clot; test: as above; type: cell-based
[3] = Whole Blood w/ Heparin 0.10 USP/mL
[4] = Whole Blood w/ Heparin 0.15 USP/mL
[5] = Whole Blood w/ Heparin 0.20 USP/mL

Heparin sodium salt
Clot Integrity [1, 3]: Weakened Clot | Difference Between All Groups in CBP [1, 3]: Yes | Clot Integrity [1, 4]: Weakened Clot | Difference Between All Groups in CBP [1, 4]: Yes | Clot Integrity [1, 5]: Weakened Clot | Difference Between All Groups in CBP [1, 5]: Yes | Dose dependence of clot strength (CBP) ([1]; between the 0.10 and 0.20 USP heparin/mL group, whole blood): dose-dependent weakness | Clot formation ([1]; heparin 0.20-0.10 USP/mL range in whole blood): weaker, but stable clot | CBP normalized to individual donor baseline (times as strong) ([1]; whole blood + 0.10 USP heparin/mL): 0.54±0.19 | CBP normalized to individual donor baseline (times as strong) ([1]; whole blood + 0.15 USP heparin/mL): 0.41±0.17 | CBP normalized to individual donor baseline (times as strong) ([1]; whole blood + 0.20 USP heparin/mL): 0.25±0.02 | Clot Integrity ([2]; Whole Blood w/ Heparin 0.25 USP/mL): Porous Clot | Clot Integrity ([2]; Whole Blood w/ Heparin 0.35 USP/mL, listed as heparin, sodium salt): completely inhibits clot production | Clot Integrity ([2]; Whole Blood w/ Heparin 0.35 USP/mL, sodium salt): No Clot Formation
